Results published in patent EP3828186B1.
Like-named read-outs stand apart in the source and are kept apart here.

Conditions: rcm bond, Grubbs II

C[C@@H]1/C=C/C[C@H](NC(=O)OC(C)(C)C)c2ccnc(c2)-c2c(cnn2C)NC1=O
ring closure, yield of all isomers (from C=CC[C@H](NC(=O)OC(C)(C)C)c1ccnc(-c2c(NC(=O)[C@H](C)C=C)cnn2C)c1, DCE, 18.8 mM, 120.0 °C, 0.5 h): 19%

C[C@@H]1/C=C/C[C@H](NC(=O)OC(C)(C)C)c2cc(ccn2)-c2c(cnn2C(F)F)NC1=O
ring closure, yield of all isomers (from C=CC[C@H](NC(=O)OC(C)(C)C)c1cc(-c2c(NC(=O)[C@H](C)C=C)cnn2C(F)F)ccn1, EtOAc, 5.0 mM, 77.0 °C, 24.0 h): 76%

[2H]C([2H])([2H])n1ncc2c1-c1ccnc(c1)[C@@H](NC(=O)OC(C)(C)C)CC=C[C@@H](C)C(=O)N2
ring closure, yield of all isomers (from [2H]C([2H])([2H])n1ncc(NC(=O)[C@H](C)C=C)c1-c1ccnc([C@H](CC=C)NC(=O)OC(C)(C)C)c1, DCE, 13.2 mM, 120.0 °C, 0.5 h): 26%

C[C@@H]1/C=C/C[C@H](NC(=O)OCc2ccccc2)c2cc(ccn2)-c2c(cnn2COCC[Si](C)(C)C)NC1=O
ring closure, yield of all isomers (from C=CC[C@H](NC(=O)OCc1ccccc1)c1cc(-c2c(NC(=O)[C@H](C)C=C)cnn2COCC[Si](C)(C)C)ccn1, DCE, 108.0 mM, 120.0 °C, 0.5 h): 42%

C[C@@H]1/C=C/C[C@H](NC(=O)OC(C)(C)C)c2cc(ccn2)-c2c(cnn2C)NC1=O
ring closure, yield of all isomers (from C=CC[C@H](NC(=O)OC(C)(C)C)c1cc(-c2c(NC(=O)[C@H](C)C=C)cnn2C)ccn1, DCE, 34.7 mM, 120.0 °C, 0.5 h): 23%
